Among the data in patent US11439707B2, “Hypocrellin derivative substituted both in a peri-position and in 2-position by amino, preparation method, and application thereof” (priority 2017, dated 2022) are maximum absorption wavelength, molar extinction coefficient and singlet oxygen yield values, retold here.

A short description of series [1]: absorption spectrum (maximum absorption wavelength, molar extinction coefficient). Type of series: physicochemical.
Series [2] is described as follows: singlet oxygen efficiency test, reference rose bengal. Format: physicochemical.

Take `COC(=O)C(CO)Nc1c2c3c4c(c(OC)c(=O)c5c(O)cc(OC)c(c6c(OC)cc(NC(CO)C(=O)OC)c(c1=O)c63)c54)C(C(C)=O)C(C)=C2` (stereo not drawn) [HB-24c]: in series [1], the maximum absorption wavelength is listed as 622 nm and the molar extinction coefficient is given as 21,500 M^−1cm^−1. Further, the singlet oxygen yield in series [2] is reported as 22%.
On to `CCNNc1c(O)c2c(=O)cc(OC)c3c4c(OC)cc(=O)c5c(NNCC)c(OC)c6c(c(c1C=C(C)C6C(C)=O)c23)c54` (stereo not drawn) [HB-36b], for which, in series [1], the maximum absorption wavelength amounted to 622 nm and the molar extinction coefficient is reported as 31,500 M^−1cm^−1. The same molecule had a singlet oxygen yield in series [2] of 30%.
For `COc1c(O)c2c(=O)cc(OC)c3c4c(OC)cc(=O)c5c(NC(C(=O)O)C(C)C)c(NC(C(=O)O)C(C)C)c6c(c(c1C(C(C)=O)C(C)=C6)c23)c54` (stereo not drawn) [HB-22a], in series [1], the maximum absorption wavelength is 621 nm and the molar extinction coefficient is 21,000 M^−1cm^−1. The molecule further showed a singlet oxygen yield in series [2] of 18%.
On to `COc1c(NCC2CCC(C(=O)NCCCC[P+](c3ccccc3)(c3ccccc3)c3ccccc3)CC2)c2c(=O)cc(OC)c3c4c(OC)cc(=O)c5c(O)c(NCC6CCC(C(=O)NCCCC[P+](c7ccccc7)(c7ccccc7)c7ccccc7)CC6)c6c(c(c1CC(C)=C6)c23)c54` (stereo not drawn) [HC-13b-NH—C4-PPh3+], for which, in series [1], the maximum absorption wavelength is 626 nm and the molar extinction coefficient is 30,500 M^−1cm^−1. In addition, in series [2], the singlet oxygen yield came to 34%.
For the molecule `COCCOCCC(=O)N1CCC(CNc2c(NCC3CCN(C(=O)CCOCCOC)CC3)c3c(=O)c(Br)c(OC)c4c5c(OC)cc(=O)c6c(O)c(OC)c7c(c(c2C=C(C)C7C(C)=O)c34)c65)CC1` (stereo not drawn) [HB-31a-Br-PEG1], in series [1], the maximum absorption wavelength is given as 624 nm and the molar extinction coefficient is listed as 32,000 M^−1cm^−1. The singlet oxygen yield in series [2] worked out at 33%.
In the case of `COc1c2c3c4c(c(NCC[N+]56CC[N+](C)(CC5)CC6)c(=O)c5c(NCC[N+]67CC[N+](C)(CC6)CC7)cc(OC)c(c6c(OC)cc(O)c(c1=O)c63)c54)C=C(C)C2C(C)=O` (stereo not drawn) [HB-41c], in series [1], the maximum absorption wavelength amounted to 621 nm and the molar extinction coefficient is 33,500 M^−1cm^−1. The same molecule registered a singlet oxygen yield in series [2] of 35%.
In the same order, the values of `CCNc1c2c3c4c(c(OC)c(=O)c5c(O)cc(OC)c(c6c(OC)c(SCCO)c(NC7CCCC7)c(c1=O)c36)c54)C(C(C)=O)C(C)=C2` (stereo not drawn) [HB-S-44c] are 628 nm, 21,000 M^−1cm^−1 and 20%.
In the case of `COc1c2c3c4c(c(NCC(=O)O)c(=O)c5c(O)cc(OC)c(c6c(OC)cc(NCCCC(=O)O)c(c1=O)c63)c54)C=C(C)C2C(C)=O` (stereo not drawn) [HB-43d], in series [1], the maximum absorption wavelength came out at 623 nm and the molar extinction coefficient was 26,500 M^−1cm^−1. The molecule further came in with a singlet oxygen yield in series [2] of 24%.
With `COCCOCCOCCOCCOCCOCCOCCOCCOCCOCCOCCOCCOCCN1CCC(CNc2c3c4c5c(c(OC)c(=O)c6c(NCC7CCN(CCOCCOCCOCCOCCOCCOCCOCCOCCOCCOCCOCCOCCOC)CC7)cc(OC)c(c7c(OC)cc(O)c(c2=O)c74)c65)C(C(C)=O)C(C)=C3)CC1` (stereo not drawn) [HB-32d-PEG12], in series [1], the maximum absorption wavelength was 632 nm and the molar extinction coefficient was 31,500 M^−1cm^−1. This molecule also came in with a singlet oxygen yield in series [2] of 33%.
In the case of `COc1c2c3c4c(c(NC5CCC(C(=O)O)C5)c(=O)c5c(NC6CCC(C(=O)O)C6)cc(OC)c(c6c(OC)cc(O)c(c1=O)c63)c54)C=C(C)C2C(C)=O` (stereo not drawn) [HB-19c], in series [1], the maximum absorption wavelength turned out to be 622 nm and the molar extinction coefficient is reported as 25,500 M^−1cm^−1. Moreover, in series [2], the singlet oxygen yield is 24%.
On to `CCNc1c2c3c4c(c(OC)c(=O)c5c(NC6CCCC6)cc(OC)c(c6c(OC)c(SCCO)c(O)c(c1=O)c36)c54)C(C(C)=O)C(C)=C2` (stereo not drawn) [HB-S-44d], for which, in series [1], the maximum absorption wavelength was 622 nm and the molar extinction coefficient is given as 21,500 M^−1cm^−1. This molecule came in with a singlet oxygen yield in series [2] of 21%.
In the same order, the values of `COCCOCCC(=O)OC1CCC(Nc2c(NC3CCC(OC(=O)CCOCCOC)C3)c3c(=O)cc(OC)c4c5c(OC)cc(=O)c6c(O)c(OC)c7c(c(c2C=C(C)C7C(C)=O)c34)c65)C1` (stereo not drawn) [HB-20a-PEG1] are 624 nm, 31,000 M^−1cm^−1 and 30%.
Turning to `COCCOCCOCCOCCOCCOCCOCCN1CCC(CNc2c3c4c5c(c(OC)c(=O)c6c(O)cc(OC)c(c7c(OC)cc(NCC8CCN(CCOCCOCCOCCOCCOCCOCCOC)CC8)c(c2=O)c74)c65)C(C(C)=O)C(C)=C3)CC1` (stereo not drawn) [HB-32c-PEG6], in series [1], the maximum absorption wavelength stood at 632 nm and the molar extinction coefficient is 33,500 M^−1cm^−1. Further, in series [2], the singlet oxygen yield was 40%.
For `COc1c2c3c4c(c(NCCCC(=O)NCCCCCCS(=O)(=O)O)c(=O)c5c(NCCCC(=O)NCCCCCCS(=O)(=O)O)cc(OC)c(c6c(OC)cc(O)c(c1=O)c63)c54)C=C(C)C2` [HC-8c-NH—C6-SO3H], in series [1], the maximum absorption wavelength is reported as 632 nm and the molar extinction coefficient was 33,500 M^−1cm^−1. In series [2], this molecule came in with a singlet oxygen yield of 35%.
In the case of `COCCOCCOCCOCCOCCOCCOCCOCCOCCOCCOCCOCCOCCOCCOCCOCCOC(=O)C1CCC(CNc2c3c4c5c(c(OC)c(=O)c6c(NCC7CCC(C(=O)OCCOCCOCCOCCOCCOCCOCCOCCOCCOCCOCCOCCOCCOCCOCCOCCOC)CC7)cc(OC)c(c7c(OC)cc(O)c(c2=O)c74)c65)C(C(C)=O)C(C)=C3)CC1` (stereo not drawn) [HB-13d-PEG16], in series [1], the maximum absorption wavelength was 624 nm and the molar extinction coefficient is on record as 30,500 M^−1cm^−1. In series [2], this molecule yielded a singlet oxygen yield of 33%.
Take `COc1c2c3c4c(c(NCC5CCC(C(=O)NCCCCCC[P+](c6ccccc6)(c6ccccc6)c6ccccc6)CC5)c(=O)c5c(NCC6CCC(C(=O)NCCCCCC[P+](c7ccccc7)(c7ccccc7)c7ccccc7)CC6)cc(OC)c(c6c(OC)cc(O)c(c1=O)c63)c54)C=C(C)C2` (stereo not drawn) [HC-13c-NH—C6-PPh3+]: in series [1], the maximum absorption wavelength turned out to be 632 nm and the molar extinction coefficient was 33,500 M^−1cm^−1. The same molecule returned a singlet oxygen yield in series [2] of 38%.
For the molecule `COCCOCCOCCOCCOCCOCCOCCC(=O)N1CCC(CNc2c(O)c3c(=O)c(Br)c(OC)c4c5c(OC)cc(=O)c6c(NCC7CCN(C(=O)CCOCCOCCOCCOCCOCCOCCOC)CC7)c(OC)c7c(c(c2C=C(C)C7C(C)=O)c34)c65)CC1` (stereo not drawn) [HB-31b-Br-PEG6], in series [1], the maximum absorption wavelength turned out to be 624 nm and the molar extinction coefficient was 31,500 M^−1cm^−1. The singlet oxygen yield in series [2] was 31%.
On to `COc1c(O)c2c(=O)cc(OC)c3c4c(OC)cc(=O)c5c(NCCS(=O)(=O)O)c(NCCS(=O)(=O)O)c6c(c(c1C(C(C)=O)C(C)=C6)c23)c54` (stereo not drawn) [HB-11a-C2-SO3H], for which, in series [1], the maximum absorption wavelength is 620 nm and the molar extinction coefficient was 30,000 M^−1cm^−1. The molecule further returned a singlet oxygen yield in series [2] of 32%.
The matching figures for `COc1c2c3c4c(c(NC(CC(N)=O)C(=O)O)c(=O)c5c(O)cc(OC)c(c6c(OC)cc(NC(CC(N)=O)C(=O)O)c(c1=O)c63)c54)C=C(C)C2C(C)=O` (stereo not drawn) [HB-26d]: 622 nm, 20,500 M^−1cm^−1 and 16%.
As to `COCCOCCOCCOCCOC(=O)C1CCC(CNc2c3c4c5c(c(OC)c(=O)c6c(O)cc(OC)c(c7c(OC)cc(NCC8CCC(C(=O)OCCOCCOCCOCCOC)CC8)c(c2=O)c74)c65)C(C(C)=O)C(C)=C3)CC1` (stereo not drawn) [HB-13c-PEG4], in series [1], the maximum absorption wavelength was found to be 630 nm and the molar extinction coefficient is given as 32,500 M^−1cm^−1. Also, the singlet oxygen yield in series [2] was 38%.
`COc1c(O)c2c(=O)cc(OC)c3c4c(OC)cc(=O)c5c(NCCCC(=O)O)c(NCC(=O)O)c6c(c(c1C(C(C)=O)C(C)=C6)c23)c54` (stereo not drawn) [HB-43a]: in series [1], the maximum absorption wavelength is 613 nm and the molar extinction coefficient is 26,500 M^−1cm^−1. The molecule also gave a singlet oxygen yield in series [2] of 28%.
With `COc1c2c3c4c(c(NCCCC(=O)O)c(=O)c5c(O)cc(OC)c(c6c(OC)cc(NCCCC(=O)O)c(c1=O)c63)c54)C=C(C)C2C(C)=O` (stereo not drawn) [HB-8d], in series [1], the maximum absorption wavelength was found to be 624 nm and the molar extinction coefficient was 29,000 M^−1cm^−1. In series [2], the singlet oxygen yield was determined as 26%.
The matching figures for `COCCOCCOCCOCCOCCOCCOCCC(=O)OCCOCCNc1c(O)c2c(=O)cc(OC)c3c4c(OC)cc(=O)c5c(NCCOCCOC(=O)CCOCCOCCOCCOCCOCCOCCOC)c(OC)c6c(c(c1C=C(C)C6)c23)c54` [HC-1b-PEG6]: 624 nm, 30,000 M^−1cm^−1 and 30%.
`COc1c(O)c2c(=O)cc(OC)c3c4c(OC)cc(=O)c5c(NCCC6CCC(O)CC6)c(NCCC6CCC(O)CC6)c6c(c(c1C(C(C)=O)C(C)=C6)c23)c54` (stereo not drawn) [HB-18a]: in series [1], the maximum absorption wavelength turned out to be 614 nm and the molar extinction coefficient was 24,000 M^−1cm^−1. In series [2], this molecule yielded a singlet oxygen yield of 20%.
For the molecule `COc1c(O)c2c(=O)cc(OC)c3c4c(OC)cc(=O)c5c(NC6CCCCC6C(=O)O)c(NC6CCCCC6C(=O)O)c6c(c(c1C(C(C)=O)C(C)=C6)c23)c54` (stereo not drawn) [HB-16a], in series [1], the maximum absorption wavelength is listed as 620 nm and the molar extinction coefficient is reported as 25,500 M^−1cm^−1. In series [2], this molecule displayed a singlet oxygen yield of 25%.
`COc1c2c3c4c(c(NCC5CCC(C(=O)OCCCCCC[P+](c6ccccc6)(c6ccccc6)c6ccccc6)CC5)c(=O)c5c(NCC6CCC(C(=O)OCCCCCC[P+](c7ccccc7)(c7ccccc7)c7ccccc7)CC6)cc(OC)c(c6c(OC)cc(O)c(c1=O)c63)c54)C=C(C)C2` (stereo not drawn) [HC-30c-C6-PPh3^+]: in series [1], the maximum absorption wavelength is recorded as 632 nm and the molar extinction coefficient is 33,500 M^−1cm^−1. Moreover, the singlet oxygen yield in series [2] turned out to be 40%.
Regarding `COc1c2c3c4c(c(NCC5CCC(C(=O)NCCCCCCS(=O)(=O)O)CC5)c(=O)c5c(NCC6CCC(C(=O)NCCCCCCS(=O)(=O)O)CC6)cc(OC)c(c6c(OC)cc(O)c(c1=O)c63)c54)C=C(C)C2` (stereo not drawn) [HC-13c-C6-SO3H], in series [1], the maximum absorption wavelength was determined as 630 nm and the molar extinction coefficient was 33,000 M^−1cm^−1. In series [2], the singlet oxygen yield stood at 36%.
